Experimental data taken from ChEMBL document CHEMBL5154795, “Exploring the structure-activity relationships of diphenylurea as an antibacterial scaffold active against methicillin- and vancomycin-resistant Staphylococcus aureus” (Eur J Med Chem, 2022).
Converted amounts (≈) assume the structure as drawn.

What was measured:
Staphylococcus aureus [1] = experiment: Antibacterial activity against methicillin-resistant Staphylococcus aureus USA300 incubated for 18 to 20 hrs by broth microdilution method; type: functional; conditions: time 18-20 hrs
Staphylococcus aureus [2] = experiment: Antibacterial activity against methicillin-sensitive Staphylococcus aureus ATCC 6538 incubated for 18 to 20 hrs by broth microdilution method; type: functional; conditions: time 18-20 hrs
Staphylococcus aureus [3] = experiment: Antibacterial activity against methicillin-resistant Staphylococcus aureus NRS 384 (USA300) incubated for 18 to 20 hrs by broth microdilution method; type: functional; conditions: time 18-20 hrs
Staphylococcus aureus [4] = experiment: Antibacterial activity against Vancomycin-resistant Staphylococcus aureus 9 incubated for 18 to 20 hrs by broth microdilution method; type: functional; conditions: time 18-20 hrs
[5] = Cytotoxicity against human Caco-2 cells assessed as cell viability at upto 128 ug/ml incubated for 24 hrs by MTS assay relative to control; type: toxicity, cell-based; conditions: up to 128 µg/mL, read-out: Activity
[6] = Cytotoxicity against human HaCaT cells assessed as cell viability upto 128 ug/ml incubated for 24 hrs by MTS assay relative to control; type: toxicity, cell-based; conditions: up to 128 µg/mL, read-out: Activity
Staphylococcus aureus [7] = experiment: Antibacterial activity against Vancomycin-resistant Staphylococcus aureus 10 incubated for 18 to 20 hrs by broth microdilution method; type: functional; conditions: time 18-20 hrs
Staphylococcus aureus [8] = experiment: Antibacterial activity against methicillin-resistant Staphylococcus aureus NRS 386 (USA700) incubated for 18 to 20 hrs by broth microdilution method; type: functional; conditions: time 18-20 hrs
Staphylococcus aureus [9] = experiment: Antibacterial activity against methicillin-resistant Staphylococcus aureus NRS 123 (USA400) incubated for 18 to 20 hrs by broth microdilution method; type: functional; conditions: time 18-20 hrs
Staphylococcus aureus [10] = experiment: Antibacterial activity against methicillin-resistant Staphylococcus aureus NRS 119 incubated for 18 to 20 hrs by broth microdilution method; type: functional; conditions: time 18-20 hrs
Staphylococcus aureus [11] = experiment: Antibacterial activity against methicillin-resistant Staphylococcus aureus NRS 385 (USA500) incubated for 18 to 20 hrs by broth microdilution method; type: functional; conditions: time 18-20 hrs
Staphylococcus aureus [12] = experiment: Induction of drug resistance in methicillin-resistant Staphylococcus aureus USA400 NRS 123 assessed as fold increase in MIC measured after 15 passages by broth microdilution assay; type: functional
Staphylococcus aureus [13] = experiment: Antibacterial activity against methicillin-sensitive Staphylococcus aureus NRS 107 incubated for 18 to 20 hrs by broth microdilution method; type: functional; conditions: time 18-20 hrs
Staphylococcus aureus [14] = experiment: Antibacterial activity against methicillin-resistant Staphylococcus aureus USA400 NRS 123 assessed as time of post-antibiotic effect at 5 times MIC incubated for 2 hrs followed by compound washout and measured every single 1 hr; type: functional
[15] = test system: Staphylococcus epidermidis; experiment: Antibacterial activity against Staphylococcus epidermidis NRS 101 incubated for 18 to 20 hrs by broth microdilution method; type: functional; conditions: time 18-20 hrs
Staphylococcus aureus [16] = experiment: Antibacterial activity against Vancomycin-resistant Staphylococcus aureus 12 incubated for 18 to 20 hrs by broth microdilution method; type: functional; conditions: time 18-20 hrs
Caco-2 [17] = experiment: Cytotoxicity against human Caco-2 cells assessed as reduction in cell viability at 64 ug/ml incubated for 24 hrs by MTS assay; type: toxicity, cell-based; conditions: caco-2, 24 h, dose 64 µg/ml
[18] = Cytotoxicity against human HaCaT cells assessed as cell viability at 64 ug/ml incubated for 24 hrs by MTS assay relative to control; type: toxicity, cell-based; conditions: at 64 µg/mL, read-out: Activity
Caco-2 [19] = experiment: Cytotoxicity against human Caco-2 cells at 128 ug/ml incubated for 24 hrs by MTS assay; type: toxicity, cell-based; conditions: caco-2, 24 h, dose 128 µg/ml

Q: With `C/C(=N\NC(=N)N)c1ccc(NC(=O)Nc2ccc(-c3cc4ccccc4s3)cc2)cc1` as the compound, how does the MIC (Staphylococcus aureus [1]) read?
A: The MIC was 4 µg/mL (≈ 9.04 µM).

Q: For `C/C(=N\NC(=N)N)c1ccc(NC(=O)Nc2ccc(C=C3CCC3)cc2)cc1`, which MIC (Staphylococcus aureus [1]) is on record?
A: Its MIC is 4 µg/mL (≈ 10.6 µM).

Q: Which MIC (Staphylococcus aureus [1]) does the source give for `C/C(=N\NC(=N)N)c1ccc(NC(=O)Nc2ccc(-c3cccn3C)cc2)cc1` here?
A: Its MIC is 4 µg/mL (≈ 10.3 µM).

Q: What does the source list for `C/C(=N\NC(=N)N)c1ccc(NC(=O)Nc2ccc(-c3cccs3)cc2)cc1`?
A: MIC (Staphylococcus aureus [2]): 4 µg/mL (≈ 10.2 µM); MIC (Staphylococcus aureus [3]): 4 µg/mL (≈ 10.2 µM); MIC (Staphylococcus aureus [4]): 8 µg/mL (≈ 20.4 µM); viability at 24 h [5]: 100%; viability at 24 h [6]: 100%; MIC (Staphylococcus aureus [1]): 4 µg/mL (≈ 10.2 µM); MIC (Staphylococcus aureus [7]): 16 µg/mL (≈ 40.8 µM); MIC (Staphylococcus aureus [8]): 4 µg/mL (≈ 10.2 µM); MIC (Staphylococcus aureus [9]): 4 µg/mL (≈ 10.2 µM); MIC (Staphylococcus aureus [10]): 16 µg/mL (≈ 40.8 µM); MIC (Staphylococcus aureus [11]): 8 µg/mL (≈ 20.4 µM); fold change (FC) (Staphylococcus aureus [12]): 1; MIC (Staphylococcus aureus [13]): 2 µg/mL (≈ 5.1 µM); Time (Staphylococcus aureus [14]): 3 h; MIC [15]: 8 µg/mL (≈ 20.4 µM); MIC (Staphylococcus aureus [16]): 8 µg/mL (≈ 20.4 µM)

Q: With `C/C(=N\NC(=N)N)c1ccc(NC(=O)Nc2ccc(-c3cccnc3)cc2)cc1` as the compound, how does the MIC (Staphylococcus aureus [1]) read?
A: Its MIC is 4 µg/mL (≈ 10.3 µM).

Q: With `C/C(=N\NC(=N)N)c1ccc(NC(=O)Nc2ccc(-c3ccc(C)cc3)cc2)cc1` as the compound, how does the MIC (Staphylococcus aureus [1]) read?
A: The MIC was 4 µg/mL (≈ 9.99 µM).

Q: With `C/C(=N\NC(=N)N)c1ccc(NC(=O)Nc2ccc(-c3ccoc3)cc2)cc1` as the compound, how does the MIC (Staphylococcus aureus [1]) read?
A: Its MIC is 4 µg/mL (≈ 10.6 µM).

Q: With `C/C(=N\NC(=N)N)c1ccc(NC(=O)Nc2ccc(-c3ccccc3)cc2)cc1` as the compound, how does the MIC (Staphylococcus aureus [1]) read?
A: Its MIC is 4 µg/mL (≈ 10.4 µM).

Q: For `C/C(=N\NC(=N)N)c1ccc(NC(=O)Nc2ccc(-c3ccsc3)cc2)cc1`, which MIC (Staphylococcus aureus [1]) is on record?
A: The MIC was 4 µg/mL (≈ 10.2 µM).

Q: For `C/C(=N\NC(=N)N)c1ccc(NC(=O)Nc2ccc(-c3ccccc3C)cc2)cc1`, which MIC (Staphylococcus aureus [1]) is on record?
A: The MIC was 4 µg/mL (≈ 9.99 µM).

Q: Which Activity (Caco-2 [17]) does the source give for `C/C(=N\NC(=N)N)c1ccc(NC(=O)Nc2ccc(/C=C/c3ccccc3)cc2)cc1` here?
A: Its Activity is “Non-Toxic”.

Q: What about the viability at 24 h, 64 ug/ml [18] of the same compound?
A: The viability at 24 h, 64 ug/ml was 100%.

Q: And the MIC (Staphylococcus aureus [2])?
A: The MIC was 16 µg/mL (≈ 38.8 µM).

Q: What about the MIC (Staphylococcus aureus [3]) of the same compound?
A: The MIC was 2 µg/mL (≈ 4.85 µM).

Q: And the MIC (Staphylococcus aureus [4])?
A: The MIC was 16 µg/mL (≈ 38.8 µM).

Q: What about the MIC (Staphylococcus aureus [7]) of the same compound?
A: The MIC was 8 µg/mL (≈ 19.4 µM).

Q: And the MIC (Staphylococcus aureus [8])?
A: Its MIC is 4 µg/mL (≈ 9.7 µM).

Q: What about the MIC (Staphylococcus aureus [9]) of the same compound?
A: Its MIC is 4 µg/mL (≈ 9.7 µM).

Q: What about the MIC (Staphylococcus aureus [10]) of the same compound?
A: The MIC was 16 µg/mL (≈ 38.8 µM).

Q: What about the Activity (Caco-2 [19]) of the same compound?
A: The Activity was “Toxic”.

Q: What about the MIC (Staphylococcus aureus [11]) of the same compound?
A: The MIC was 8 µg/mL (≈ 19.4 µM).

Q: What about the fold change (FC) (Staphylococcus aureus [12]) of the same compound?
A: The fold change (FC) was 1.

Q: What about the MIC (Staphylococcus aureus [13]) of the same compound?
A: Its MIC is 8 µg/mL (≈ 19.4 µM).

Q: And the Time (Staphylococcus aureus [14])?
A: The Time was 3 h.

Q: And the MIC [15]?
A: The MIC was 8 µg/mL (≈ 19.4 µM).

Q: What about the MIC (Staphylococcus aureus [16]) of the same compound?
A: The MIC was 8 µg/mL (≈ 19.4 µM).

Q: Which MIC (Staphylococcus aureus [1]) does the source give for `C/C(=N\NC(=N)N)c1ccc(NC(=O)Nc2ccc(Cc3ccccc3)cc2)cc1` here?
A: The MIC was 4 µg/mL (≈ 9.99 µM).
